Reference: patent US8124793B2, “Derivatives of ethylene methanedisulfonate as cancer chemotherapeutic agents” (priority 2007, dated 2012)

How the values were obtained:
Assay type in all cases: cell-based
[1] = test system: COLO205; experiment: NCI screen, growth of human tumor cells: Colon Cancer COLO205; settings: COLO205, 10^−4 molar
In short: (§1)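 Percent-growth read-out from the NCI cancer cell screen; data annotated by cancer type and molar concentration, ≥60 points per compound.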

[2] = test system: HOP-92; experiment: NCI screen, growth of human tumor cells: Non-Small Cell Lung HOP-92; settings: HOP-92, 10^−4 molar
In short: as §1

[3] = test system: SK-OV-3; experiment: NCI screen, growth of human tumor cells: Ovarian Cancer SK-OV-3; settings: SK-OV-3 (Ovarian Cancer), 10^−4 molar
In short: as §1

[4] = test system: SK-MEL-5; experiment: NCI screen, growth of human tumor cells: Melanoma SK-MEL-5; settings: SK-MEL-5, 10^−4 molar
In short: as §1

[5] = test system: CCRF-CEM; experiment: NCI screen, growth of human tumor cells: Leukemia CCRF-CEM; settings: CCRF-CEM
In short: as §1

[6] = test system: HL-60 (TB); experiment: NCI screen, growth of human tumor cells: Leukemia HL-60 (TB); settings: HL-60 (TB) (Leukemia), 10^−4 molar
Experimental: (§2) In the NCI screening process, each compound was tested and described by a minimum of 60 data points. The test data include, but are not limited to the type of cancer, the molar concentration used in the screen, and the percent growth of the cancer. In some cases, NMR and elemental analysis were used for structural assignment.

[7] = test system: EKVX; experiment: NCI screen, growth of human tumor cells: Non-Small Cell Lung EKVX; settings: EKVX (Non-Small Cell Lung), 10^−4 molar
In short: as §1

[8] = test system: KM12; experiment: NCI screen, growth of human tumor cells: Colon Cancer KM12; settings: KM12 (Colon Cancer), 10^−4 molar
In short: as §1

[9] = test system: HT29; experiment: NCI screen, growth of human tumor cells: Colon Cancer HT29; settings: HT29 (Colon Cancer), 10^−4 molar
In short: as §1

[10] = test system: NCI-H522; experiment: NCI screen, growth of human tumor cells: Non-Small Cell Lung NCI-H522; settings: NCI-H522 (Non-Small Cell Lung), 10^−4 molar
In short: as §1

[11] = test system: OVCAR-3; experiment: NCI screen, growth of human tumor cells: Ovarian Cancer OVCAR-3; settings: OVCAR-3 (Ovarian Cancer), 10^−4 molar
In short: as §1

[12] = test system: NCI-H322M; experiment: NCI screen, growth of human tumor cells: Non-Small Cell Lung NCI-H322M; settings: NCI-H322M (Non-Small Cell Lung), 10^−4 molar
In short: as §1

[13] = test system: TK-10; experiment: NCI screen, growth of human tumor cells: Renal Cancer TK-10; settings: TK-10 (Renal Cancer), 10^−4 molar
Experimental: as §2

[14] = test system: SF-268; experiment: NCI screen, growth of human tumor cells: CNS Cancer SF-268; settings: SF-268 (CNS Cancer), 10^−4 molar
In short: as §1

[15] = test system: OVCAR-8; experiment: NCI screen, growth of human tumor cells: Ovarian Cancer OVCAR-8; settings: OVCAR-8 (Ovarian Cancer), 10^−4 molar
In short: as §1

[16] = test system: SN12C; experiment: NCI screen, growth of human tumor cells: Renal Cancer SN12C; settings: SN12C (Renal Cancer), 10^−4 molar
In short: as §1

[17] = test system: SF-539; experiment: NCI screen, growth of human tumor cells: CNS Cancer SF-539; settings: SF-539 (CNS Cancer), 10^−4 molar
In short: as §1

[18] = test system: RPMI-8226; experiment: NCI screen, growth of human tumor cells: Leukemia RPMI-8226
In short: as §1

[19] = test system: UACC-62; experiment: NCI screen, growth of human tumor cells: Melanoma UACC-62; settings: UACC-62, 10^−4 molar
In short: as §1

[20] = test system: DMS273; experiment: NCI screen, growth of human tumor cells: Small Cell Lung Cancer DMS273; settings: 10^−4 molar
Experimental: (§3) The compounds listed in Section II are arranged by their NSC number followed by the percent of growth of human tumor cells when the compound is administrated at 10^−4 molar concentration.
as §2

[21] = test system: XF 498; experiment: NCI screen, growth of human tumor cells: CNS Cancer XF 498; settings: XF 498 (CNS Cancer), 10^−4 molar
Experimental: as §3, §2

[22] = test system: AS49/ATCC; experiment: NCI screen, growth of human tumor cells: Non-Small Cell Lung AS49/ATCC; settings: AS49/ATCC (Non-Small Cell Lung), 10^−4 molar
In short: as §1

[23] = test system: HCC-2998; experiment: NCI screen, growth of human tumor cells: HCC-2998 (listed under Non-Small Cell Lung); settings: HCC-2998, 10^−4 molar
In short: as §1

[24] = test system: K562; experiment: NCI screen, growth of human tumor cells: Leukemia K562; settings: K562 (Leukemia), 10^−4 molar
In short: as §1

[25] = test system: LOXIMVI; experiment: NCI screen, growth of human tumor cells: Melanoma LOXIMVI; settings: LOXIMVI, 10^−4 molar
In short: as §1

[26] = test system: IGROVI; experiment: NCI screen, growth of human tumor cells: Ovarian Cancer IGROVI; settings: IGROVI (Ovarian Cancer), 10^−4 molar
In short: as §1

[27] = test system: A498; experiment: NCI screen, growth of human tumor cells: Renal Cancer A498; settings: A498, 10^−4 molar
[28] = test system: SR; experiment: NCI screen, growth of human tumor cells: Leukemia SR; settings: SR
In short: as §1

[29] = test system: SNB-78; experiment: NCI screen, growth of human tumor cells: CNS Cancer SNB-78; settings: SNB-78 (CNS Cancer), 10^−4 molar
Experimental: as §3, §2

[30] = test system: HOP-62; experiment: NCI screen, growth of human tumor cells: Non-Small Cell Lung HOP-62; settings: HOP-62, 10^−4 molar
In short: as §1

[31] = test system: SK-MEL-28; experiment: NCI screen, growth of human tumor cells: Melanoma SK-MEL-28; settings: SK-MEL-28 (Melanoma), 10^−4 molar
In short: as §1

[32] = test system: OVCAR-4; experiment: NCI screen, growth of human tumor cells: Ovarian Cancer OVCAR-4; settings: OVCAR-4 (Ovarian Cancer), 10^−4 molar
In short: as §1

[33] = test system: RXF-631; experiment: NCI screen, growth of human tumor cells: Renal Cancer RXF-631; settings: RXF-631 (Renal Cancer), 10^−4 molar
Experimental: as §3, §2

[34] = test system: 786-0; experiment: NCI screen, growth of human tumor cells: Renal Cancer 786-0; settings: 786-0, 10^−4 molar
In short: as §1

[35] = test system: MALME-3M; experiment: NCI screen, growth of human tumor cells: Melanoma MALME-3M; settings: MALME-3M, 10^−4 molar
In short: as §1

[36] = test system: SNB-75; experiment: NCI screen, growth of human tumor cells: CNS Cancer SNB-75; settings: SNB-75 (CNS Cancer), 10^−4 molar
In short: as §1

[37] = test system: SK-MEL-2; experiment: NCI screen, growth of human tumor cells: Melanoma SK-MEL-2; settings: SK-MEL-2, 10^−4 molar
In short: as §1

[38] = test system: MOLT-4; experiment: NCI screen, growth of human tumor cells: Leukemia MOLT-4; settings: MOLT-4 (Leukemia), 10^−4 molar
In short: as §1

[39] = test system: SW620; experiment: NCI screen, growth of human tumor cells: Colon Cancer SW620; settings: SW620, 10^−4 molar
In short: as §1

[40] = test system: NCI-H23; experiment: NCI screen, growth of human tumor cells: Non-Small Cell Lung NCI-H23
In short: as §1

[41] = test system: CAKI-1; experiment: NCI screen, growth of human tumor cells: Renal Cancer CAKI-1; settings: CAKI-1, 10^−4 molar
In short: as §1

[42] = test system: UO-31; experiment: NCI screen, growth of human tumor cells: Renal Cancer UO-31; settings: UO-31, 10^−4 molar
In short: as §1

[43] = test system: SF-295; experiment: NCI screen, growth of human tumor cells: CNS Cancer SF-295; settings: SF-295 (CNS Cancer), 10^−4 molar
In short: as §1

[44] = test system: DMS114; experiment: NCI screen, growth of human tumor cells: Small Cell Lung Cancer DMS114; settings: 10^−4 molar
Experimental: as §3, §2

[45] = test system: NCI-H226; experiment: NCI screen, growth of human tumor cells: Non-Small Cell Lung NCI-H226; settings: NCI-H226, 10^−4 molar
In short: as §1

[46] = test system: UACC-257; experiment: NCI screen, growth of human tumor cells: Melanoma UACC-257; settings: UACC-257 (Melanoma), 10^−4 molar
In short: as §1

[47] = test system: HCT-116; experiment: NCI screen, growth of human tumor cells: Colon Cancer HCT-116; settings: HCT-116, 10^−4 molar
In short: as §1

[48] = test system: LXFL529; experiment: NCI screen, growth of human tumor cells: Non-Small Cell Lung Cancer LXFL529

O=S1(=O)OCCOS(=O)(=O)C1(I)I [NSC 648308, ethylene diiodomethanedisulfonate]
% Growth [1]: −61%
% Growth [2]: −78%
percent of growth of human tumor cells [3]: −49%
% Growth [4]: −91%
% Growth ([5]; 10^−4 molar): −44%
% Growth ([5]; 10^−5 molar): 55%
percent of growth of human tumor cells [6]: −16%
percent of growth of human tumor cells [7]: −35%
percent of growth of human tumor cells [8]: −58%
percent of growth of human tumor cells [9]: −18%
percent of growth of human tumor cells [10]: −45%
percent of growth of human tumor cells [11]: −14%
percent of growth of human tumor cells [12]: −45%
percent of growth of human tumor cells [13]: −19%
percent of growth of human tumor cells [14]: −11%
percent of growth of human tumor cells [15]: −25%
percent of growth of human tumor cells [16]: −61%
percent of growth of human tumor cells [17]: −25%
% Growth ([18]; RPMI-8226, 10^−4 molar): −37%
% Growth ([18]; RPMI-8226, 10^−5 molar): 48%
% Growth [19]: −82%
percent of growth of human tumor cells [20]: −45%
percent of growth of human tumor cells [21]: −67%
percent of growth of human tumor cells [22]: −17%
% Growth [23]: −99%
percent of growth of human tumor cells [24]: −16%
% Growth [25]: −93%
percent of growth of human tumor cells [26]: −24%
% Growth [27]: −100%
% Growth ([28]; 10^−4 molar): −37%
% Growth ([28]; 10^−5 molar): 48%
percent of growth of human tumor cells [29]: −6%
% Growth [30]: −69%
percent of growth of human tumor cells [31]: −29%
percent of growth of human tumor cells [32]: −39%
percent of growth of human tumor cells [33]: −44%
% Growth [34]: −95%
% Growth [35]: −80%
percent of growth of human tumor cells [36]: −36%
% Growth [37]: −80%
percent of growth of human tumor cells [38]: −22%
% Growth [39]: −55%
% Growth ([40]; NCI-H23, 10^−4 molar): −70%
% Growth ([40]; NCI-H23, 10^−5 molar): 56%
% Growth [41]: −71%
% Growth [42]: −95%
percent of growth of human tumor cells [43]: −4%
percent of growth of human tumor cells [44]: −46%
% Growth [45]: −91%
percent of growth of human tumor cells [46]: −54%
% Growth [47]: −100%
% Growth ([48]; LXFL529, 10^−4 molar): −72%
% Growth ([48]; LXFL529, 10^−5 molar): 55%
